Measurements reported in US20180369203A1, “METHODS OF TREATING CANCER BY ADMINISTERING A MEK INHIBITOR IN COMBINATION WITH A PROTEASOME INHIBITOR” (The Jackson Laboratory, priority 2015, published 2018).
Where two headings read alike, the source gives them in different places.

Columns and labels:
A2058 cells [1] = test: Experimental melanoma metastasis, i.v. luciferase-expressing A2058 cells in NOD/SCID mice; assay type: in vivo; conditions: n=10 per group
Method: FIGS. 6A-N show combined MEK and proteasome inhibition exerts potent tumor-suppressive effects. (A) After treatments with 20 nM AZD6244, 100 nM Bortezomib, or both for 24 hr, viable cells were quantitated by CellTiter® Blue (mean±SD, n=6, ANOVA). (B and C) 1×10^6 A2058 cells were s.c. injected into NOD/SCID mice. After 7 days, mice were treated with DMSO, 5 mg/Kg AZD6244, 0.5 mg/Kg Bortezomib, or the combination via i.p. injection three times a week. Tumor volumes were measured using a caliper weekly (mean±SEM, ANOVA). Tumor growth curves were fitted to exponential growth models to derive tumor-doubling time (DT). Kaplan-Meier survival curve was plotted for each group (Log-rank test). (D) Proteins were detected by immunoblotting, 3 tumors per group. (E) Tumor lysates were used to quantitate AOs, 5 tumors per group (mean±SD, n=3, ANOVA). (F) Tumor lysates were used to seed Aβ1-42 peptides, 5 tumors per group (mean±SD, n=3, ANOVA). (G-H) Tumor sections were stained with CR, 5 tumors per group. […] Total CR fluorescence in each field was quantitated using ImageJ and normalized against total nuclei (median, n=50, ANOVA). […] Body weights were monitored weekly (mean±SD, n=10, ANOVA). […]
A2058 cells were s.c. injected into the left flanks of 9-week-old female NOD.CB17-Prkdc/J (NOD/SCID) mice (The Jackson Laboratory). […] Tumor volumes were calculated following the formula 4/3πR^3. […]

A2058 cells [2] = test: Ubiquitination proteomics (UbiScan, LC-MS/MS) of A2058 cells; assay type: cell-based, human; conditions: 20 nM AZD6244, 8 hrs vs DMSO
Method: (A) GFP and GFP-GR plasmids were co-transfected into HEK293T cells followed by treatments with 20 nM AZD6244, 20 μM U0126, or 200 nM 17-DMAG for 4 hr. (B) GFP-GR plasmids were co-transfected into HEK293T cells with HA-Ub-K48 plasmids, which encode a mutant ubiquitin that can be conjugated to protein substrates only via lysine 48. Following treatments with 20 nM AZD6244 or 200 nM 17-DMAG for 4 hr, GFP-GR proteins were precipitated and ubiquitination was detected using anti-HA antibodies. (C) Denatured firefly luciferases were incubated with lysates of A2058 cells treated with DMSO or 20 nM AZD6244 (mean±SD, n=4, ANOVA). (D) A2058 cells were treated with 20 nM AZD6244, and ubiquitinated proteins were detected in both detergent-soluble and -insoluble fractions using Lys48-specific ubiquitin antibodies. […] (G) Experimental procedures of MS-based quantitation of ubiquitinated peptides, two technical replicates per treatment. […] (Q) Endogenous RPL15 and RPL3 proteins were detected in A2058 cells treated with 20 nM AZD6244 alone or co-treated with 500 nM MG132. (R) Endogenous RPL15 and RPL3 proteins were detected in A2058 cells stably expressing LacZ or HSF1^S326D with AZD6244 treatment. […]
A2058 cells were grown in 150 mm culture dishes and treated with DMSO or 20 nM AZD6244 for 8 hrs. […] Two technical replicates were analyzed for each treatment.

Hsp genes = test: qRT-PCR of heat-shock-induced Hsp mRNA in NIH3T3 cells; assay type: cell-based, mouse; conditions: 20 μM U0126 or 20 nM AZD6244 for 3 hr, then HS and 4-hr recovery
Method: (A) NIH3T3 cells were treated with HS at 43° C. for 30 min, 10 μM tubastatin A for 5 hr, 40 μM VER155008 for 1 hr, 500 nM MG132 for 1 hr, 200 nM 17-DMAG for 1 hr, and 2.5 mM azetidine for 15 min (B) The dual ELK1 reporter system, comprising a serum response element (SRE)-driven secreted embryonic alkaline phosphatase (SEAP) plasmid and a CMV-driven Gaussia luciferase (GLuc) plasmid, was transfected into HEK293T cells. After 24 hr, cells were treatments as in (A) and recovered overnight before measuring reporter activities (mean±SD, n=6, ANOVA). (C and D) NIH3T3 cells were treated with 20 μM U0126 or 20 nM AZD6244 for 3 hr followed by HS and 4-hr recovery. mRNA levels were quantitated by qRT-PCR (mean±SD, n=3, Student's t-test). (E) Immediately after HS, nuclear proteins of NIH3T3 cells treated as in (C) were extracted to measure HSF1-DNA binding by an ELISA-based assay (mean±SD, n=3, ANOVA). […]
Total RNAs were extracted using RNA STAT-60 reagent (Tel-Test, Inc.), and RNAs were used for reverse transcription using a Verso cDNA Synthesis kit (Thermo Fisher Scientific). Equal amounts of cDNA were used for quantitative PCR reaction using a DyNAmo SYBR Green qPCR kit (Thermo Fisher Scientific). Signals were detected by an ABI 7500 Real-Time PCR System (Applied Biosystems). […]

HSF1 Ser326 [3] = test: HSF1 Ser326 phosphorylation by immunoblotting in HEK293T cells; assay type: cell-based; conditions: overnight, 20 μM U0126, 20 nM AZD6244, 1 μM FR180204 or 100 nM Sch772984
Method: This figure is related to FIG. 3. (A) Validation of phospho-HSF1 Ser326 antibodies. […] (B) MEK blockade impairs HSF1 Ser326 phosphorylation. […] (D-E) S326A mutation impairs HSF1 nuclear translocation. […] (F) Acute MEK depletion diminishes HSF1 proteins. […] HSF1 proteins were detected by immunoblotting. (G) ERK-mediated HSF1 Ser307 phosphorylation depends on MEK. […] Levels of phosphor-HSF1 Ser307 were measured by immunoblotting. (H) HSF1 Ser326 phosphorylation inhibits Ser307 phosphorylation.

[4] = tested on: ERK complexes precipitated from HEK293T cells; test: In vitro kinase assay with immunoprecipitated ERK complexes; assay type: biochemical
Method: (§1) Co-expressed GFP proteins served as internal controls. […] See also FIG. 10.
(§2) Samples were boiled for 5 min to stop reactions.

HSF1 Ser326 [5] = conditions: NIH3T3; 20 μM U0126 for 3 hrs, then heat shock 43° C. 30 mins
Method: NIH3T3 cells were treated with 20 μM U0126 for 3 hrs followed by heat shock at 43° C. for 30 mins HSF1 Ser326 phosphorylation was detected by immunoblotting.
Whole-cell protein extracts were prepared in cold cell-lysis buffer (100 mM NaCl, 30 mM Tris-HCl pH 7.6, 1% Triton X-100, 30 mM NaF, 1 mM EDTA, 1 mM sodium orthovanadate, and Halt™ protease inhibitor cocktail from Thermo Scientific). Proteins were separated on SDS-PAGE gels and transferred to nitrocellulose membranes. Primary antibodies were applied in wash buffer overnight at 4° C. Peroxidase-conjugated secondary antibodies were applied at room temperature for 1 hr, and signals were visualized by SuperSignal West chemiluminescent substrate (Thermo Fisher Scientific), followed by exposure to films.

MEK1 = MEK1 (Homo sapiens, UniProt Q02750); conditions: 100 ng GST-MEK1, 400 ng His-HSF1, RT
MEK1, sequence (Q02750 whole entry): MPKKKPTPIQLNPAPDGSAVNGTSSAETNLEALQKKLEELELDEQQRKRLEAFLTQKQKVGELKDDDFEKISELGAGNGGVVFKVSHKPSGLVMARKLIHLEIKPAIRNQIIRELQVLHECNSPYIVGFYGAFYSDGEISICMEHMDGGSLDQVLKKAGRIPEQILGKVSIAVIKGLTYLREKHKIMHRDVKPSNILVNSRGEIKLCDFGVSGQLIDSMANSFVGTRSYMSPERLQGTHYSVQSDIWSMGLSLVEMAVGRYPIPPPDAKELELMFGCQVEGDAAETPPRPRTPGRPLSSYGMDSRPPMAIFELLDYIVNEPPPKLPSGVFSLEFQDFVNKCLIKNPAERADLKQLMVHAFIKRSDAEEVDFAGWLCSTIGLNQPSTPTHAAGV
Method: as §1, §2

HSF1 [6] = test: Dual HSF1 reporter assay (HSE-SEAP / CMV-GLuc) in HEK293T cells; assay type: cell-based; conditions: 20 μM U0126, 20 nM AZD6244, 1 μM FR180204 or 100 nM Sch772984
Method: (A) NIH3T3 cells were treated with HS at 43° C. for 30 min, 10 μM tubastatin A for 5 hr, 40 μM VER155008 for 1 hr, 500 nM MG132 for 1 hr, 200 nM 17-DMAG for 1 hr, and 2.5 mM azetidine for 15 min (B) The dual ELK1 reporter system, comprising a serum response element (SRE)-driven secreted embryonic alkaline phosphatase (SEAP) plasmid and a CMV-driven Gaussia luciferase (GLuc) plasmid, was transfected into HEK293T cells. After 24 hr, cells were treatments as in (A) and recovered overnight before measuring reporter activities (mean±SD, n=6, ANOVA). (C and D) NIH3T3 cells were treated with 20 μM U0126 or 20 nM AZD6244 for 3 hr followed by HS and 4-hr recovery. mRNA levels were quantitated by qRT-PCR (mean±SD, n=3, Student's t-test). (E) Immediately after HS, nuclear proteins of NIH3T3 cells treated as in (C) were extracted to measure HSF1-DNA binding by an ELISA-based assay (mean±SD, n=3, ANOVA). (F) HEK293T cells were transfected with dual HSF1 reporter plasmids, a heat-shock element (HSE)-driven SEAP plasmid and a CMV-GLuc plasmid. […] (G) HEK293T cells were treated with different inhibitors overnight. […] After 24 hr, cells were heat shocked at 43° C. for 30 min followed by overnight recovery (mean±SD, n=3, ANOVA). […]
FIGS. 8A-H illustrate that MEK and ERK inversely regulate the PSR. […] Cell viability was measured by a Guava EasyCyte™ flow cytometer using Guava ViaCount™ reagents (mean±SD, n=5, Student's t test). […] Levels of ERK1 and ERK2 mRNAs were quantitated in HEK293T cells transfected with ERK1-targeting siRNAs by qRT-PCR (mean±SD, n=3, ANOVA). […] Levels of ERK2 and ERK1 mRNAs were quantitated in HEK293T cells transfected with ERK2-targeting siRNAs by qRT-PCR (mean±SD, n=3, ANOVA).
Plasmids were transfected with TurboFect transfection reagent (Thermo Scientific). SEAP and luciferase activities in culture supernatants were quantitated using a Ziva® Ultra SEAP Plus Detection Kit (Jaden BioScience) and a Gaussia Luciferase Glow Assay Kit (Thermo Scientific), respectively. Luminescence signals were measured by a VICTORS Multilabel plate reader (PerkinElmer).

HSF1 [7] = test: ELISA-based HSF1-DNA binding assay, NIH3T3 nuclear proteins; assay type: cell-based, mouse; conditions: NIH3T3, immediately after HS; 20 μM U0126 or 20 nM AZD6244 for 3 hr
Method: (A) NIH3T3 cells were treated with HS at 43° C. for 30 min, 10 μM tubastatin A for 5 hr, 40 μM VER155008 for 1 hr, 500 nM MG132 for 1 hr, 200 nM 17-DMAG for 1 hr, and 2.5 mM azetidine for 15 min (B) The dual ELK1 reporter system, comprising a serum response element (SRE)-driven secreted embryonic alkaline phosphatase (SEAP) plasmid and a CMV-driven Gaussia luciferase (GLuc) plasmid, was transfected into HEK293T cells. After 24 hr, cells were treatments as in (A) and recovered overnight before measuring reporter activities (mean±SD, n=6, ANOVA). (C and D) NIH3T3 cells were treated with 20 μM U0126 or 20 nM AZD6244 for 3 hr followed by HS and 4-hr recovery. mRNA levels were quantitated by qRT-PCR (mean±SD, n=3, Student's t-test). (E) Immediately after HS, nuclear proteins of NIH3T3 cells treated as in (C) were extracted to measure HSF1-DNA binding by an ELISA-based assay (mean±SD, n=3, ANOVA). (F) HEK293T cells were transfected with dual HSF1 reporter plasmids, a heat-shock element (HSE)-driven SEAP plasmid and a CMV-GLuc plasmid. […] (G) HEK293T cells were treated with different inhibitors overnight. […] After 24 hr, cells were heat shocked at 43° C. for 30 min followed by overnight recovery (mean±SD, n=3, ANOVA). (L)-(O) HEK293T cells were transfected with siRNAs for 48 hr followed by transfection with dual HSF1 reporter plasmids for 24 hr before HS (mean±SD, n=6, ANOVA). […]

| Compound | mice with luminescence detected by in vivo imaging (A2058 cells [1]) [%] | increase in ubiquitination of RPL3 (A2058 cells [2]) [fold] | increase in ubiquitination of TOR1AIP2 (A2058 cells [2]) [fold] | HS-induced transcription of Hsp genes (Hsp genes) | HSF1 Ser326 phosphorylation (HSF1 Ser326 [3]) | phosphorylation of recombinant ERK1 proteins by precipitated ERK complexes ([4]; 400 ng GST-ERK1) | HSF1 Ser326 phosphorylation by precipitated ERK complexes ([4]; 400 ng His-HSF1) | HSF1 Ser326 phosphorylation (HSF1 Ser326 [5]) | HSF1 Ser326 phosphorylation by recombinant MEK1 (MEK1) | transcriptional activation of HSF1 (HSF1 [6]) | DNA-binding capacity of HSF1 (HSF1 [7]) |
| --- | --- | --- | --- | --- | --- | --- | --- | --- | --- | --- | --- |
| Cn1cnc2c(F)c(Nc3ccc(Br)cc3Cl)c(C(=O)NOCCO)cc21 [AZD6244, selumetinib] | 40 | 13.7 | 61.0 | – | – | – | – | – | – | – | – |
| N#CC(=C(/N)Sc1ccccc1N)/C(C#N)=C(\N)Sc1ccccc1N [U0126] | – | – | – | impeded | impairs | blocked | blocked | impaired | blocked | impaired | impaired |
